# Laboratory results from ChEMBL document CHEMBL5620385, “Orally bioavailable styryl derivative of rohitukine-N-oxide inhibits CDK9/T1 and the growth of pancreatic cancer cells” (Eur J Med Chem, 2023).
# Experiments:
# HCT-116 [1] = assay: Antiproliferative activity against human HCT-116 cells assessed as cell growth inhibition at 10 uM incubated for 48 hrs by MTT assay relative to control; assay type: functional
# [2] = biological target: CDK9/Cyclin K (Homo sapiens) (UniProt P50750+O75909); assay: Inhibition of CDK9/cyclin K (unknown origin) at 10 uM by ADP-Glo assay relative to control; assay type: protein-complex assay
# CDK9/Cyclin K = CDK9/Cyclin K (Homo sapiens, UniProt P50750); assay: Inhibition of CDK9/cyclin K (unknown origin) by ADP-Glo assay; assay type: protein-complex assay
# [3] = AUC(0 to t) in BALB/c mouse at 5 mg/kg, iv measured for 6 hrs by LC-MS/MS analysis; assay type: ADME, organism-based; settings: in vivo
# MIA PaCa-2 [4] = assay: Antiproliferative activity against human MIA PaCa-2 cells assessed as cell growth inhibition incubated for 48 hrs by MTT assay; assay type: functional
# [5] = Cmax in BALB/c mouse at 30 mg/kg, po measured for 6 hrs by LC-MS/MS analysis; assay type: ADME, organism-based; settings: in vivo
# [6] = Half life in BALB/c mouse at 30 mg/kg, po measured for 6 hrs by LC-MS/MS analysis; assay type: ADME, organism-based; settings: in vivo
# [7] = biological target: Cyclin-dependent kinase 7/ cyclin H (Homo sapiens, UniProt P50613); assay: Inhibition of CDK7/cyclin H (unknown origin) by ADP-Glo assay; assay type: protein-complex assay
# [8] = Half life in BALB/c mouse at 5 mg/kg, iv measured for 6 hrs by LC-MS/MS analysis; assay type: ADME, organism-based; settings: in vivo
# [9] = Clearance in BALB/c mouse at 30 mg/kg, po measured for 6 hrs by LC-MS/MS analysis; assay type: ADME, organism-based; settings: in vivo
# MIA PaCa-2 [10] = assay: Induction of apoptosis in human MIA PaCa-2 cells assessed as apoptotic body formation incubated for 48 hrs by DAPI staining based analysis; assay type: functional, cell-based
# [11] = Clearance in BALB/c mouse at 5 mg/kg, iv measured for 6 hrs by LC-MS/MS analysis; assay type: ADME, organism-based; settings: in vivo
# MIA PaCa-2 [12] = assay: Antiproliferative activity against human MIA PaCa-2 cells assessed as cell growth inhibition at 10 uM incubated for 48 hrs by MTT assay relative to control; assay type: functional
# [13] = Metabolic stability in human liver microsomes assessed as drug metabolism at 10 uM measured after 30 mins in presence of NADPH by HPLC analysis; assay type: ADME, Microsome; settings: read-out: Drug metabolism
# [14] = Volume of distribution in BALB/c mouse at 30 mg/kg, po measured for 6 hrs by LC-MS/MS analysis; assay type: ADME, organism-based; settings: in vivo
# [15] = AUC(0 to infinity) in BALB/c mouse at 30 mg/kg, po measured for 6 hrs by LC-MS/MS analysis; assay type: ADME, organism-based; settings: in vivo
# [16] = Volume of distribution in BALB/c mouse at 5 mg/kg, iv measured for 6 hrs by LC-MS/MS analysis; assay type: ADME, organism-based; settings: in vivo
# [17] = AUC(0 to infinity) in BALB/c mouse at 5 mg/kg, iv measured for 6 hrs by LC-MS/MS analysis; assay type: ADME, organism-based; settings: in vivo
# [18] = Metabolic stability in mouse liver microsomes assessed as drug metabolism at 10 uM measured after 30 mins in presence of NADPH by HPLC analysis; assay type: ADME, Microsome; settings: read-out: Drug metabolism
# [19] = Antiproliferative activity against HEK293 cells assessed as cell growth inhibition at 10 uM incubated for 48 hrs by MTT assay relative to control; assay type: toxicity, cell-based; settings: human
# MIA PaCa-2 [20] = assay: Induction of apoptosis in human MIA PaCa-2 cells assessed as chromatin condensation incubated for 48 hrs by DAPI staining based analysis; assay type: functional, cell-based
# CDK9/cyclin T1 = CDK9/cyclin T1 (Homo sapiens, UniProt P50750); assay: Inhibition of CDK9/cyclin T1 (unknown origin) by ADP-Glo assay; assay type: protein-complex assay
# [21] = Antiproliferative activity against HEK293 cells assessed as cell growth inhibition incubated for 48 hrs by MTT assay; assay type: toxicity, cell-based; settings: human
# HCT-116 [22] = assay: Antiproliferative activity against human HCT-116 cells assessed as cell growth inhibition incubated for 48 hrs by MTT assay; assay type: functional
# [23] = biological target: Cyclin-dependent kinase 7/ cyclin H (Homo sapiens) (UniProt P51946+P50613); assay: Inhibition of CDK7/cyclin H (unknown origin) at 10 uM by ADP-Glo assay relative to control; assay type: protein-complex assay
# [24] = C0 in BALB/c mouse at 5 mg/kg, iv measured for 6 hrs by LC-MS/MS analysis; assay type: ADME, organism-based; settings: in vivo
# [25] = AUC(0 to t) in BALB/c mouse at 30 mg/kg, po measured for 6 hrs by LC-MS/MS analysis; assay type: ADME, organism-based; settings: in vivo
# MIA PaCa-2 [26] = assay: Induction of intracellular ROS generation in human MIA PaCa-2 cells incubated for 48 hrs by DCFDA dye based analysis; assay type: functional, cell-based
# MIA PaCa-2 [27] = assay: Induction of mitochondrial membrane potential loss in human MIA PaCa-2 cells incubated for 48 hrs by Rhodamine-123 dye based analysis; assay type: functional, cell-based
# [28] = Tmax in BALB/c mouse at 30 mg/kg, po measured for 6 hrs by LC-MS/MS analysis; assay type: ADME, organism-based; settings: in vivo
# Chain of CDK9/cyclin T1 (O60563 whole entry): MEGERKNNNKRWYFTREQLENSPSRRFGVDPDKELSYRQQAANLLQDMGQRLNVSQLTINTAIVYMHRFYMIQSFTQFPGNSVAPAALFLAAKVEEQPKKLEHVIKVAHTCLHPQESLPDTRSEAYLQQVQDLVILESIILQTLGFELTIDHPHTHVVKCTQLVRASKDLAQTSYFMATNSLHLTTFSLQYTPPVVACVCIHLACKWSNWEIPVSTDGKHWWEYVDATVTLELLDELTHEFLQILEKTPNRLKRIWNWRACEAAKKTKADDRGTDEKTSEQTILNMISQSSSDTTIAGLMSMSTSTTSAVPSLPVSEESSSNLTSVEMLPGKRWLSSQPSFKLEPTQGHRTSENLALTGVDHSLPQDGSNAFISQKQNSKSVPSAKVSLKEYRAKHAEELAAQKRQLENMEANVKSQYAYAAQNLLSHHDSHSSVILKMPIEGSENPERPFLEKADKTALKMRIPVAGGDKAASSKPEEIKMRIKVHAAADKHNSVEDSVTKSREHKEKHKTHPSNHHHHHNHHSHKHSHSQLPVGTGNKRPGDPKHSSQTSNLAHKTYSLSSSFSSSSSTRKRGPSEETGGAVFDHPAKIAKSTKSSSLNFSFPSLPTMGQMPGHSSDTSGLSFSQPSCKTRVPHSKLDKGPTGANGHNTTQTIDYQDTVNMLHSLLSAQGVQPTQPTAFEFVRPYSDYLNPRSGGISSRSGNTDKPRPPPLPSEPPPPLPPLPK
# Chain of CDK9/cyclin T1 (P50750 whole entry): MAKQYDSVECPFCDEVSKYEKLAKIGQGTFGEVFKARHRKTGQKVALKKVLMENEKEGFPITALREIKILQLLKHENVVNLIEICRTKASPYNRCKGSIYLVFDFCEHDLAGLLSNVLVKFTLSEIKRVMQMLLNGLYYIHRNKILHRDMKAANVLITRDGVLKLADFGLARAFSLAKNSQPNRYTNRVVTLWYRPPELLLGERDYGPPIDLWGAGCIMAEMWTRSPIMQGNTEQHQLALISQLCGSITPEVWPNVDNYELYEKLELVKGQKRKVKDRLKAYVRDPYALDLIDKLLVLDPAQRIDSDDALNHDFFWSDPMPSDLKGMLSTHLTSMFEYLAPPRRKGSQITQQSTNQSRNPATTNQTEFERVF
# Chain of Cyclin-dependent kinase 7/ cyclin H (P51946 whole entry): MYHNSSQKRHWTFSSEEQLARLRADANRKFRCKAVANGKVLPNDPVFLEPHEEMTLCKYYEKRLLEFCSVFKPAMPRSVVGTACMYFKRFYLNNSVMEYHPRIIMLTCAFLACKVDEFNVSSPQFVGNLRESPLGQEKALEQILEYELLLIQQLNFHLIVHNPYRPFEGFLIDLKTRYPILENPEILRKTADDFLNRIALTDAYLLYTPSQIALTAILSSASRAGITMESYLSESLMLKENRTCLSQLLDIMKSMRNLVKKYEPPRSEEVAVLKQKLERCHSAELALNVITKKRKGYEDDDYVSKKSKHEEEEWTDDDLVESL
# Chain of Cyclin-dependent kinase 7/ cyclin H (P50613 whole entry): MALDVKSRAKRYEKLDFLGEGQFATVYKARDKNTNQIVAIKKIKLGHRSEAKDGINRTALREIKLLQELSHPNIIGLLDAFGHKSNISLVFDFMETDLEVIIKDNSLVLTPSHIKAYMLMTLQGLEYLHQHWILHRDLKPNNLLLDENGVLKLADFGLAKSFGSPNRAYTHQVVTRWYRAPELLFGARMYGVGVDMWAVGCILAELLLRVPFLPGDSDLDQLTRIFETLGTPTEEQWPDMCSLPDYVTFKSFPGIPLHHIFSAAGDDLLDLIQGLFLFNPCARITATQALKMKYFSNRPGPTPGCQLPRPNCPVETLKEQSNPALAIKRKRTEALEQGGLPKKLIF
# Chain of CDK9/Cyclin K (P50750 whole entry): as the sequence (P50750 whole entry) above
# Chain of CDK9/Cyclin K (O75909 whole entry, further chain): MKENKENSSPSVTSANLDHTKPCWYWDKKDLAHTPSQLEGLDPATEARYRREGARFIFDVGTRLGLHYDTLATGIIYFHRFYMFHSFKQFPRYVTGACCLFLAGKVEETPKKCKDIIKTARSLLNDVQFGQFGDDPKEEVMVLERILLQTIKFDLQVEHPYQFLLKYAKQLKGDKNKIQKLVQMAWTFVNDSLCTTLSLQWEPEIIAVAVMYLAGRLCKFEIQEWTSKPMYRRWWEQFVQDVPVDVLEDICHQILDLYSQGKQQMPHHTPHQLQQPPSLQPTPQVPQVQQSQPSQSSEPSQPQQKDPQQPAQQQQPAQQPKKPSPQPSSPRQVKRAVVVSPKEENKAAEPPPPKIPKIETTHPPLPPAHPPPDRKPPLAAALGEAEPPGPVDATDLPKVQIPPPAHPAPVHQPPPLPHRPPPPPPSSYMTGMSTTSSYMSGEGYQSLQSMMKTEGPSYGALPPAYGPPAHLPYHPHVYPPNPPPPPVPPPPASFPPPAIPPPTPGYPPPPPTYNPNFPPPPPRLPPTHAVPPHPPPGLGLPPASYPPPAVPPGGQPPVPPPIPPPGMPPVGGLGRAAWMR
structure (smiles),measurement,setting,value
COc1cc(O)c2c(=O)cc(/C=C/c3c(F)cccc3Cl)oc2c1[C@H]1CC[N+](C)([O-])C[C@H]1O (stereo not given in full),inhibition at 10 µM,HCT-116 [1],25.2%
same,inhibition,[2],41.7%
same,IC50,CDK9/Cyclin K,2280 nM
same,AUC(0-t) at 6 h,[3],956 ng·h/mL
same,GI50,MIA PaCa-2 [4],5530 nM
same,Cmax,[5],817 ng/mL
same,half-life,[6],9.6 min
same,IC50,[7],540 nM
same,half-life,[8],6 min
same,CL/F,[9],1250 mL/min/kg
same,Activity,MIA PaCa-2 [10],Dose-Dependent Effect
same,clearance,[11],86.7 mL/min/kg
same,inhibition at 10 µM,MIA PaCa-2 [12],24.9%
same,"metabolised at 0.5 h, 10 µM",[13],16%
same,Vd,[14],17 L/kg
same,AUC(0-inf),[15],401 ng·h/mL
same,Vd,[16],0.8 L/kg
same,AUC(0-inf),[17],957 ng·h/mL
same,"metabolised at 0.5 h, 10 µM",[18],16%
same,"inhibition at 48 h, 10 µM",[19],14.9%
same,Activity,MIA PaCa-2 [20],Dose-Dependent Effect
same,IC50,CDK9/cyclin T1,150 nM
same,GI50 at 48 h,[21],81500 nM
same,GI50,HCT-116 [22],2530 nM
same,inhibition,[23],28.7%
same,C0 at 6 h,[24],19100 ng/mL
same,AUC(0-t) at 6 h,[25],400 ng·h/mL
same,Activity,MIA PaCa-2 [26],Dose-Dependent Effect
same,Activity,MIA PaCa-2 [27],Dose-Dependent Effect
same,Tmax,[28],30 min
